Source: PMC5007486, “Thermodynamic instability of viral proteins is a pathogen-associated molecular pattern targeted by human defensins” (Scientific Reports, 2016)
Where no end group is shown, it is not given here.

Experiments:
HIV-1 Gag-Δp6 = settings: DSF, 5-fold molar excess of cyclotide
Procedure: (§3) Viral protein samples (5–20 μM) in a 20 mM 4-(2-hydroxyethyl)-1-piperazineethanesulfonic acid (HEPES) buffer (pH 7.5) supplemented with 150 mM NaCl and 1x SYPRO Orange dye (Invitrogen) were subjected to temperature denaturation in the absence or presence of defensins. […] Temperature melting profiles were acquired with a CFX96 Touch Real-Time PCR Detection System (Bio-Rad). Melting temperatures for proteins alone and in the presence of different defensins were calculated as described previously[76].

HIV-1 IN [1] = settings: DSF, 5-fold molar excess of cyclotide
Procedure: as §3

TEV Protease [2] = type: binding, tobacco etch virus (TEV); settings: DSF
Excerpt: (§1) Differential scanning fluorimetry (DSF)

[3] = test system: Actin Crosslinking Domain (ACD); type: binding, Vibrio cholerae; settings: 5-molar excess of peptide to the toxin
HIV-1 CA [4] = settings: DSF, 5-fold molar excess of cyclotide
Procedure: as §3

PFV IN [5] = type: binding, prototype foamy virus (PFV); settings: DSF, 5-fold molar excess of cyclotide
Excerpt: as §1

[6] = test system: gp41-derived peptide mixture of N36/C34; design: method as in PMID 16648135; settings: cited from earlier work
serine protease = test system: serine protease; design: method as in PMID 23171075; settings: greatly increased with elevated temperature; cited from earlier work
dengue virus DENV-2 = test system: dengue virus DENV-2; design: method as in PMID 23171075; settings: activity greatly increased with elevated temperature; cited from earlier work
gp41 [7] = settings: cited from earlier work
TEV Protease [8] = test system: TEV Protease; design: species or system tobacco etch virus (TEV); settings: 10 μM protein; HNP-1 20 and 50 μM or RC-101 30 and 60 μM; 30 min, […] °C, pH 7.5, 100 mM NaCl; 280,000 g, SDS-PAGE
Procedure: Precipitation of HIV-1 MA, HIV-1 CA, and TEV protease was assessed by differential ultracentrifugation. […] All samples were centrifuged using TLA-100 rotor in Optima TL-100 ultracentrifuge (Beckman Coulter) at 280,000 g for 30 min at 4 °C. The supernatant (soluble) and pellet (precipitated) fractions were collected, supplemented with 1/3rd of the volume of 4x reducing sample buffer (200 mM Tris, pH 6.8, 40% glycerol, 8% SDS, 400 mM β-mercaptoethanol, 0.4% bromophenol blue), pellets resuspended, and samples resolved on SDS-PAGE.

HIV-1 CA [9] = settings: 10 μM CA, 3-fold molar excess HNP-1, chymotrypsin (1:100 w/w) or thermolysin (1:200 w/w), 37 °C, 20 mM HEPES pH 7.5, 100 mM NaCl, 5 mM CaCl2, SDS-PAGE
Procedure: (§4) Briefly, viral proteins (5–10 μM) were mixed with 3-fold molar excess of HNP-1 (i.e. 15–30 μM) in a 20 mM HEPES buffer (pH 7.5) supplemented with 100 mM NaCl and 5 mM CaCl2. […] The reactions were stopped by adding reducing sample buffer (50 mM Tris, pH 6.8, 10% glycerol, 2% sodium dodecyl sulfate (SDS), 100 mM β-mercaptoethanol, 0.1% bromophenol blue) supplemented with 2 mM phenylmethylsulfonyl fluoride (PMSF) and 10 mM ethylenediaminetetraacetic acid (EDTA) and boiling for 5 min. The protein samples were resolved on SDS-PAGE.

PFV IN [10] = test system: PFV IN; design: species or system prototype foamy virus (PFV); settings: 5 μM PFV IN, 3-fold molar excess HNP-1, chymotrypsin (1:100 w/w) or thermolysin (1:200 w/w), 37 °C, 20 mM HEPES pH 7.5, 100 mM NaCl, 5 mM CaCl2, SDS-PAGE
Procedure: Limited proteolysis was conducted as described previously. […] The protein samples were resolved on SDS-PAGE.

HIV-1 = settings: cited from earlier work
HIV-1 MA = settings: 10 μM MA, 3-fold molar excess HNP-1, chymotrypsin (1:100 w/w) or thermolysin (1:200 w/w), 37 °C, 20 mM HEPES pH 7.5, 100 mM NaCl, 5 mM CaCl2, SDS-PAGE
Procedure: as §4

TEV Protease [11] = type: biochemical, tobacco etch virus (TEV); settings: disulfide bonds reduced with 10 mM TCEP, one hour pre-incubation at room temperature
Procedure: TEV protease activity assay
The reactions were stopped by boiling in reducing sample buffer; proteolytic products were resolved on SDS-PAGE. For reducing condition experiments, the reaction buffer was supplemented with 10 mM tris(2-carboxyethyl)phosphine (TCEP) and the defensins were pre-incubated with 10 mM TCEP for one hour at room temperature before co-incubation with the TEV protease. Note, the ammonium salt of TCEP (Sigma #646547) used in this study has neutral pH (7.0). Care was taken to verify that the final pH of the working solutions was not changed after the addition of TCEP.

HIV-1 IN [12] = settings: HTRF; IN 400 nM; defensin 1–10 μM, 30 min room temperature; strand transfer three hours 37 °C, pH 7.5
Procedure: Homogenous time-resolved fluorescence (HTRF)-based integration activity assay
To test the HIV-1 integrase (IN) activity in the presence and absence of defensins, previously developed HTRF technique[41][42] was used with some modifications. […] Following the incubation with the defensins, a 5′-Cy5-labelled 21-mer viral donor DNA (200 nM) and 3′-biotinylated target DNA (20 nM) were added to the reaction. […] 0.5 M NaCl (final concentration in the development solution) allows dissociating of all DNA from IN to prevent FRET signal from non-covalently associated donor and target DNA. Following an overnight incubation at 4 °C, the HTRF signal was recorded with an EnSpire multimode plate reader (PerkinElmer).

HSV = test system: HSV; design: method as in PMID 17142766; settings: cited from earlier work
gp41 [13] = settings: cited from earlier work; remark: listed apart in the source
[14] = test system: Gram-negative and Gram-positive bacteria; settings: reduction of disulfide bonds; cited from earlier work
Excerpt: (§2) Three characteristic disulfide bonds stabilize the defensins’ structure and are essential for some, but not all functions of the peptides. […] This is likely because the preserved defensin structure is required in the later case, when the cell wall synthesis machinery is targeted, but not in the former case, when defensins directly affect membranes of Gram-negative bacteria. In contrast, reduction of disulfi ...

[15] = cited from earlier work
Excerpt: as §2

chemokine receptor CCR6 = test system: chemokine receptor CCR6; design: method as in PMID 12840147; settings: binding and activation of CCR6; cited from earlier work
Ad5.F35 capsid = settings: CryoEM; with signs of local disorganization of hexon, penton base, fiber; cited from earlier work
Excerpt: It is likely that the potent destabilizing effects imposed by defensins are pertinent at numerous physiological occasions and particularly upon dynamic structural transitions in the course of capsid assembly, uncoating, and membrane fusion. Yet, we are far from proposing that the destabilization of purified viral proteins by defensins observed in vitro accurately represents the complexity of physiological conditions including, but not limited to, interactions of viral proteins with each other, viral nucleic acids, and host proteins. Thus, in apparent contradiction with our resu ...

kalata B1 [kB1]
Ability to potentiate unfolding of HIV-1 Gag-Δp6 (HIV-1 Gag-Δp6): none of the four cyclotides used in this study (cyO2, cyO19, kB1, and kB7) demonstrated an ability to potentiate unfolding
Ability to potentiate unfolding of HIV-1 IN (HIV-1 IN [1]): none of the four cyclotides used in this study (cyO2, cyO19, kB1, and kB7) demonstrated an ability to potentiate unfolding
Ability to potentiate unfolding of TEV protease (TEV Protease [2]; 5-fold molar excess of cyclotide): none of the four cyclotides used in this study (cyO2, cyO19, kB1, and kB7) demonstrated an ability to potentiate unfolding
Unfolding / DSF thermal denaturation profile of ACD toxin [3]: none of the four cyclotides used in this study (cyO2, cyO19, kB1, and kB7) demonstrated an ability to potentiate unfolding
Ability to potentiate unfolding of HIV-1 CA (HIV-1 CA [4]): none of the four cyclotides used in this study (cyO2, cyO19, kB1, and kB7) demonstrated an ability to potentiate unfolding
Ability to potentiate unfolding of PFV IN (PFV IN [5]): none of the four cyclotides used in this study (cyO2, cyO19, kB1, and kB7) demonstrated an ability to potentiate unfolding

retrocyclin-1 [RC-1]
Circular dichroism spectrum of N36/C34 [6]: transformed into a random coil-like spectrum
DENV-2 serine protease activity (serine protease): interfering with the activity of its serine protease
Dengue virus DENV-2 replication (dengue virus DENV-2): inhibits dengue virus DENV-2 replication
Refolding of gp41 into 6-helix bundle (gp41 [7]): impaired refolding of gp41 into the 6-helix bundle structure triggering their aggregation

HNP-1: human neutrophil α-defensin peptide HNP-1, prepared by solid-phase peptide synthesis
Precipitation of TEV protease (TEV Protease [8]): dose-dependent precipitation
Detectable amounts of cleaved products of HIV-1 CA (HIV-1 CA [9]): drastic reduction in the detectable amounts of cleaved products
Ability to promote unfolding of TEV protease, reducing conditions (TEV Protease [2]; disulfide bonds reduced with 10 mM TCEP): complete loss
Detectable amounts of cleaved products of PFV IN (PFV IN [10]): drastic reduction in the detectable amounts of cleaved products
HIV-1 infection (HIV-1): inhibit HIV-1 and HSV infections at multiple steps
Detectable amounts of cleaved products of HIV-1 MA (HIV-1 MA): drastic reduction in the detectable amounts of cleaved products
Ability to inhibit proteolytic activity of TEV protease, reducing conditions (TEV Protease [11]): complete loss
Strand transfer activity of HIV-1 IN (HIV-1 IN [12]): inhibited the strand transfer activity of IN
Refolding of gp41 into 6-helix bundle (gp41 [7]): impaired refolding of gp41 into the 6-helix bundle structure triggering their aggregation
HSV infection (HSV): inhibit HIV-1 and HSV infections at multiple steps
Refolding lifetime of gp41 intermediates in pre-hairpin conformation (gp41 [13]): prolong refolding lifetime of gp41 intermediates in pre-hairpin conformation

hBD-1: human β-defensin hBD-1, prepared by solid-phase peptide synthesis (DHYNCVSSGGQCLYSACPIFTKIQGTCYRGKAKCCK; ends and bridges not checked; cysteine pairing not given here; UniProt P60022 33-68, looked up)
Effect on thermal melting of TEV protease, reducing conditions (TEV Protease [2]; reduced β-defensin, 10 mM TCEP): had no effect on thermal melting
Effect of disulfide reduction on antimicrobial activity [14]: activates hBD-1 antimicrobial activity against both Gram-negative and Gram-positive bacteria

hBD-3: human beta-defensin 3 (GIINTLQKYYCRVRGGRCAVLSCLPKEEQIGKCSTRGRKCCRRKK; ends and bridges not checked; cysteine pairing not given here; UniProt P81534 23-67, looked up)
Need of disulfide bonds for antimicrobial activity [15]: dispensable for its antimicrobial activity
Need of disulfide bonds for chemotactic activity (chemokine receptor CCR6): required for its chemotactic activity

B1: HD-5: human enteric α-defensin HD-5, prepared by solid-phase peptide synthesis (peptide, UniProt Q01523 20-94, looked up)
Defensin alpha 5: ESLQERADEATTQKQSGEDNQDLAISFAGNGLSALRTSGSQARATCYCRTGRCATRESLSGVCEISGRLYRLCCR
modifications: Defensin-5
notes: human enteric α-defensin HD-5, prepared by solid-phase peptide synthesis
Stability of Ad5.F35 capsid (Ad5.F35 capsid): overall stabilization of Ad5.F35 capsid
